From patent US20240391882A1 (Mirati Therapeutics, Inc., priority 2023, published 2024)

Columns and labels:
Type in all cases: cell-based
[1] = tested on: pAKT in T47D (PI3Kα H1047R mutant) cells; assay: Inhibition of pAKT (alphaLISA Surefire Ultra AKT 1/2/3 pS473) in T47D cells; settings: Homo sapiens; T47D (PI3Kα H1047R mutant) cells, 24 hr compound incubation, alphaLISA pS473; read-out: T47D (H1047R) pAKT 24 hr (IC50)
In short: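 AlphaLISA read-out of AKT pS473 in lysates after roughly 24 h compound exposure at 37° C in HBSS. Ten concentrations, 1:4 dilutions from a 10.4 μm top dose. Percent of control uses alpelisib at 3.125 μm as background and DMSO as vehicle; four-parameter curve gives IC50.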

[2] = tested on: T47D (PI3Kα H1047R mutant) cells; assay: Cell viability (CellTiter-Glo 2.0) in T47D cells; settings: Homo sapiens, T47D, 72 h, approximately 72 hours
In short: (§1)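 IC50 values derive from four-parameter fits of CellTiter-Glo luminescence expressed as percent of vehicle control. Cells (T47D or SKBR3) were plated at 1000/well the day before dosing and incubated about 72 h at 37° C with a 10-point, 1:4 series starting at 10 μm.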

[3] = tested on: SKBR3 (PI3Kα wild type) cells; assay: Cell viability (CellTiter-Glo 2.0) in SKBR3 cells; settings: Homo sapiens, SK-BR-3; SKBR3 (PI3Kα wild type) cells, approximately 72 hours, CellTiter-Glo 2.0; read-out: SKBR3 (WT) Viability IC50
In short: as §1

Row | SMILES | IC50 [1] | IC50 [2] | IC50 [3]
1 | Cc1cc([C@@H](C)Nc2ccc(Cl)nc2C(=O)O)c2nc(NCC3(F)CC3)c(C#N)nc2c1 [Example 23, (R)-6-chloro-3-((1-(2-cyano-3-(((1-fluorocyclopropyl)methyl)amino)-7-methylquinoxalin-5-yl)ethyl)amino)picolinic acid] | 0.7 nM | 61.9 nM | > 10000 nM
2 | Cc1cc([C@@H](C)Nc2ccc(Cl)nc2C(=O)O)c2nc(N3Cc4ccc(F)cc4C3)c(C#N)nc2c1 [Example 24, (R)-6-chloro-3-((1-(2-cyano-3-(5-fluoroisoindolin-2-yl)-7-methylquinoxalin-5-yl)ethyl)amino)picolinic acid] | 1.3 nM | 44.2 nM | > 10000 nM
3 | Cc1cc([C@@H](C)Nc2ccc(Cl)nc2C(=O)O)c2nc(NCC3CC3)c(C#N)nc2c1 [Example 25, (R)-6-chloro-3-((1-(2-cyano-3-((cyclopropylmethyl)amino)-7-methylquinoxalin-5-yl)ethyl)amino)picolinic acid] | 1.2 nM | 175 nM | > 10000 nM
4 | C[C@@H](Nc1ccc(Cl)nc1C(=O)O)c1cc(F)cc2nc(C#N)c(N3CCC(F)(F)CC3)nc12 [Example 26, (R)-6-chloro-3-((1-(2-cyano-3-(4,4-difluoropiperidin-1-yl)-7-fluoroquinoxalin-5-yl)ethyl)amino)picolinic acid] | 1.8 nM | 51.5 nM | 9800 nM
5 | C[C@H](Nc1ccccc1C(=O)O)c1cc(C#N)cc2nc(C#N)c(N3CCC(F)(F)CC3)nc12 [Example 27, (S)-2-((1-(2,7-dicyano-3-(4,4-difluoropiperidin-1-yl)quinoxalin-5-yl)ethyl)amino)benzoic acid] | 1140 nM | > 10000 nM | > 10000 nM
6 | C[C@@H](Nc1ccccc1C(=O)O)c1cc(C#N)cc2nc(C#N)c(N3CCC(F)(F)CC3)nc12 [Example 28, (R)-2-((1-(2,7-dicyano-3-(4,4-difluoropiperidin-1-yl)quinoxalin-5-yl)ethyl)amino)benzoic acid] | 48.3 nM | 2140 nM | > 10000 nM
7 | C[C@H](Nc1ccccc1C(=O)O)c1cc(Cl)cc2nc(C#N)c(N3CCC(F)(F)CC3)nc12 [Example 29, (S)-2-((1-(7-chloro-2-cyano-3-(4,4-difluoropiperidin-1-yl)quinoxalin-5-yl)ethyl)amino)benzoic acid] | 117 nM | 3480 nM | > 10000 nM
8 | C[C@@H](Nc1ccccc1C(=O)O)c1cc(Cl)cc2nc(C#N)c(N3CCC(F)(F)CC3)nc12 [Example 30, (R)-2-((1-(7-chloro-2-cyano-3-(4,4-difluoropiperidin-1-yl)quinoxalin-5-yl)ethyl)amino)benzoic acid] | 4.7 nM | 183 nM | > 10000 nM
9 | C[C@H](Nc1ccccc1C(=O)O)c1cc(F)cc2nc(C#N)c(N3CCC(F)(F)CC3)nc12 [Example 31, (S)-2-((1-(2-cyano-3-(4,4-difluoropiperidin-1-yl)-7-fluoroquinoxalin-5-yl)ethyl)amino)benzoic acid] | 561 nM | > 10000 nM | > 10000 nM
10 | C[C@@H](Nc1ccccc1C(=O)O)c1cc(F)cc2nc(C#N)c(N3CCC(F)(F)CC3)nc12 [Example 32, (R)-2-((1-(2-cyano-3-(4,4-difluoropiperidin-1-yl)-7-fluoroquinoxalin-5-yl)ethyl)amino)benzoic acid] | 10.2 nM | 265 nM | > 10000 nM
11 | C[C@@H](Nc1ccc(Cl)nc1C(=O)O)c1cc(C2CC2)cc2nc(C#N)c(N3CCC(F)(F)CC3)nc12 [Example 33, (R)-6-chloro-3-((1-(2-cyano-7-cyclopropyl-3-(4,4-difluoropiperidin-1-yl)quinoxalin-5-yl)ethyl)amino)picolinic acid] | 4.3 nM | 91.4 nM | 7430 nM
12 | C[C@@H](Nc1ccc(Cl)nc1C(=O)O)c1cc(Cl)cc2nc(C#N)c(N3CCC(F)(F)CC3)nc12 [Example 34, (R)-6-chloro-3-((1-(7-chloro-2-cyano-3-(4,4-difluoropiperidin-1-yl)quinoxalin-5-yl)ethyl)amino)picolinic acid] | 6.2 nM | 48.2 nM | > 10000 nM
13 | Cc1cc([C@@H](C)Nc2ccc(Cl)nc2C(=O)O)c2nc(N3CCC(F)(F)CC3)c(C)nc2c1 [Example 35, (R)-6-chloro-3-((1-(3-(4,4-difluoropiperidin-1-yl)-2,7-dimethylquinoxalin-5-yl)ethyl)amino)picolinic acid] | 3.1 nM | 166 nM | 8290 nM
14 | Cc1cc([C@@H](C)Nc2ccccc2C(=O)O)c2nc(N3CCC(F)(F)CC3)c(C)nc2c1 [Example 36, (R)-2-((1-(3-(4,4-difluoropiperidin-1-yl)-2,7-dimethylquinoxalin-5-yl)ethyl)amino)benzoic acid] | 93.7 nM | 1170 nM | > 10000 nM
15 | C[C@@H](Nc1ccccc1C(=O)O)c1cc(C2CC2)cc2nc(C#N)c(N3CCC(F)(F)CC3)nc12 [Example 37, (R)-2-((1-(2-cyano-7-cyclopropyl-3-(4,4-difluoropiperidin-1-yl)quinoxalin-5-yl)ethyl)amino)benzoic acid] | 94.6 nM | 588 nM | > 10000 nM
16 | Cc1cc([C@@H](C)Nc2ccc(Cl)nc2C(=O)O)c2nc(C3CC3)c(C#N)nc2c1 [Example 44, (R)-6-chloro-3-((1-(2-cyano-3-cyclopropyl-7-methylquinoxalin-5-yl)ethyl)amino)picolinic acid] | 2 nM | 157 nM | > 10000 nM
17 | Cc1cc([C@@H](C)Nc2ccc(Cl)nc2C(=O)O)c2nc(N3CCCC(C(F)(F)F)C3)c(C#N)nc2c1 (stereo partly drawn) [Example 45, 6-chloro-3-(((1R)-1-(2-cyano-7-methyl-3-(3-(trifluoromethyl)piperidin-1-yl)quinoxalin-5-yl)ethyl)amino)picolinic acid] | 6.8 nM | 115 nM | > 10000 nM
18 | Cc1cc([C@@H](C)Nc2ccccc2C(=O)O)c2nc(N3CC(C)(C)C3)c(C#N)nc2c1 [Example 55, (R)-2-((1-(2-cyano-3-(3,3-dimethylazetidin-1-yl)-7-methylquinoxalin-5-yl)ethyl)amino)benzoic acid] | 21.6 nM | 422 nM | > 10000 nM
19 | Cc1cc([C@@H](C)Nc2ccc(Cl)nc2C(=O)O)c2nc(N3CC(C)(C)C3)c(C#N)nc2c1 [Example 56, (R)-6-chloro-3-((1-(2-cyano-3-(3,3-dimethylazetidin-1-yl)-7-methylquinoxalin-5-yl)ethyl)amino)picolinic acid] | 4.7 nM | 128 nM | > 10000 nM
20 | Cc1cc([C@@H](C)Nc2ccccc2C(=O)O)c2nc(N3CCOCC3)c(C#N)nc2c1 [Example 57, (R)-2-((1-(2-cyano-7-methyl-3-morpholinoquinoxalin-5-yl)ethyl)amino)benzoic acid] | 14 nM | 165 nM | > 10000 nM
21 | Cc1cc([C@@H](C)Nc2ccc(Cl)nc2C(=O)O)c2nc(N3CCOCC3)c(C#N)nc2c1 [Example 58, (R)-6-chloro-3-((1-(2-cyano-7-methyl-3-morpholinoquinoxalin-5-yl)ethyl)amino)picolinic acid] | 1.8 nM | 24 nM | 3500 nM
22 | Cc1cc([C@@H](C)Nc2ccccc2C(=O)O)c2nc(N3CCC(C)(C)CC3)c(C#N)nc2c1 [Example 61, (R)-2-((1-(2-cyano-3-(4,4-dimethylpiperidin-1-yl)-7-methylquinoxalin-5-yl)ethyl)amino)benzoic acid] | 38.6 nM | 513 nM | > 10000 nM
23 | Cc1cc([C@@H](C)Nc2ccc(Cl)nc2C(=O)O)c2nc(N3CCC(C)(C)CC3)c(C#N)nc2c1 [Example 62, (R)-6-chloro-3-((1-(2-cyano-3-(4,4-dimethylpiperidin-1-yl)-7-methylquinoxalin-5-yl)ethyl)amino)picolinic acid] | 7.9 nM | 220 nM | 7080 nM
24 | COC1(C)CN(c2nc3c([C@@H](C)Nc4ccccc4C(=O)O)cc(C)cc3nc2C#N)C1 [Example 63, (R)-2-((1-(2-cyano-3-(3-methoxy-3-methylazetidin-1-yl)-7-methylquinoxalin-5-yl)ethyl)amino)benzoic acid] | 16.5 nM | 254 nM | 9810 nM
25 | COC1(C)CN(c2nc3c([C@@H](C)Nc4ccc(Cl)nc4C(=O)O)cc(C)cc3nc2C#N)C1 [Example 64, (R)-6-chloro-3-((1-(2-cyano-3-(3-methoxy-3-methylazetidin-1-yl)-7-methylquinoxalin-5-yl)ethyl)amino)picolinic acid] | 1.3 nM | 44 nM | > 10000 nM
26 | Cc1cc([C@@H](C)Nc2ccccc2C(=O)O)c2nc(C3CC3)c(C#N)nc2c1 [Example 67, (R)-2-((1-(2-cyano-3-cyclopropyl-7-methylquinoxalin-5-yl)ethyl)amino)benzoic acid] | 72 nM | 687 nM | 2770 nM
27 | Cc1cc([C@@H](C)Nc2ccccc2C(=O)O)c2nc(N3CCCC3)c(C#N)nc2c1 [Example 68, (R)-2-((1-(2-cyano-7-methyl-3-(pyrrolidin-1-yl)quinoxalin-5-yl)ethyl)amino)benzoic acid] | 24.4 nM | 391 nM | > 10000 nM
